The subject of the assay is primary mouse microglia. Description: Phagocytosis in primary mouse microglia. The settings on record: pHrodo-myelin. Format: cell-based. On the procedure:
Activity of Compound 9 in primary mouse microglia. Cortical tissue from C57BL/6J neonatal mice (P0-P3) was homogenized in Dulbecco's Modified Eagle Medium (DMEM), filtered through 250 and 100 μm mesh, and cultured in Advanced DMEM/F12 supplemented with 10% fetal bovine serum, 1× GlutaMAX and 1× Penicillin/Streptomycin. At 21 days in vitro (DIV), the cultures were subjected to mild trypsinization using 0.083% Trypsin-EDTA in DMEM for 30 mins to detach an intact layer of astrocytes. The microglia attached to the bottom were used as described in pHrodo-myelin phagocytosis assay to measure phagocytosis and cell health. The activity of Compound 10 in primary mouse microglia was obtained in a similar manner to Compound 9. Cortical tissue from C57BL/6J neonatal mice (P0-P3) was homogenized in Dulbecco's Modified Eagle Medium (DMEM), filtered through 250 and 100 μm mesh, and cultured in Advanced DMEM/F12 supplemented with 10% fetal bovine serum, 1× GlutaMAX and 1× Penicillin/Streptomycin. At 21 days in vitro (DIV), the cultures were subjected to mild trypsinization using 0.083% Trypsin-EDTA in DMEM for 30 mins to detach an intact layer of astrocytes. The microglia attached to the bottom were used as described in Example 13 to measure myelin phagocytosis and cell health. The results are depicted in FIG. 3. Primary Mouse Microglia of compound 10 was obtained in a similar manner to compound 9. The results are depicted in FIG. 3.

Our source for the EC50 and increased phagocytosis values is US20260242352A1, “INHIBITION OF SHIP1 AS A THERAPEUTIC STRATEGY FOR THE TREATMENT OF ALZHEIMER'S DISEASE” (The Trustees of Indiana University, priority 2022, published 2026).

In general, EC50 refers to the concentration that produces a half-maximal response.

`Cl.Clc1ccccc1COc1cncc(-c2cnn(C3CCNCC3)c2)c1` [Compound 9, 3-((2-chlorobenzyl)oxy)-5-(1-(piperidin-4-yl)-1H-pyrazol-4-yl)pyridine hydrochloride] gave an EC50 of 1300 nM and an increased phagocytosis of 1.8 fold.
The like results for `Cl.Clc1ccc(COc2cncc(-c3cnn(C4CCNCC4)c3)c2)c(Cl)c1` [Compound 10, 3-((2,4-dichlorobenzyl)oxy)-5-(1-(piperidin-4-yl)-1H-pyrazol-4-yl)pyridine hydrochloride] were, in that order, 540 nM and 1.5 fold.
